pIC50: −log10 of the molar value. Read-outs that look alike come from different tables or passages of the source. Residues, ends and D or L forms follow the SMILES beside them.
Tests used:
[1] = target: T1, HLA-A0201 (Homo sapiens, UniProt P04439, D140Y/D185E/D98H/E176V/E277Q/G131W/G231S/I119V/I121R/I166T/I218V/L300P/L318F/N151K/N90K/P208A/P217A/Q86G/Q94H/R138H/R169H/T345S); assay: cell-based; assay type: binding; settings: for inhibition at 5 µM / inhibition at 15 µM: HLA-A0201 HMy2.CIR cells, 24 hours, flow cytometry; for inhibition at 5 µM: competitor peptide 5μM, read-out: 5μM Inhibition (%); for inhibition at 15 µM: competitor peptide 15μM, read-out: 15μM Inhibition (%)
T1 construct: expressed in transfected cells; host or cells: HMy2.CIR
Outline: (§1)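 HMy2.CIR cells stably transfected with each HLA-A allele were acid-stripped (citric acid/Na2HPO4, pH 3.3, 1 min), neutralized in IMDM with 0.5% BSA, then given β2-m (1 μg/mL) and unlabeled competitor plus the FITC reference peptide. FITC+ cells were measured by flow cytometry, and IC50 was taken from percent competition.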

[2] = target: T2, HLA-A0206 (Homo sapiens, UniProt P04439, D140Y/D185E/D98H/E176V/E277Q/F33Y/G131W/G231S/I119V/I121R/I166T/I218V/L300P/L318F/N151K/N90K/P208A/P217A/Q86G/Q94H/R138H/R169H/T345S); assay: cell-based; assay type: binding; settings: for inhibition at 5 µM / inhibition at 15 µM: HLA-A0206 HMy2.CIR cells, 24 hours, flow cytometry; for inhibition at 5 µM: competitor peptide 5μM, read-out: 5μM Inhibition (%); for inhibition at 15 µM: competitor peptide 15μM, read-out: 15μM Inhibition (%)
T2 construct: expressed in transfected cells; host or cells: HMy2.CIR
Outline: as §1

[3] = target: T3, HLA-A0207 (Homo sapiens, UniProt P04439, D140Y/D185E/D98H/E176V/E277Q/G131W/G231S/I119V/I121R/I166T/I218V/L300P/L318F/N151K/N90K/P208A/P217A/Q86G/Q94H/R138H/R169H/T345S/Y123C); assay: cell-based; assay type: binding; settings: for inhibition at 5 µM / inhibition at 15 µM: HLA-A0207 HMy2.CIR cells, 24 hours, flow cytometry; for inhibition at 5 µM: competitor peptide 5μM, read-out: 5μM Inhibition (%); for inhibition at 15 µM: competitor peptide 15μM, read-out: 15μM Inhibition (%)
T3 construct: expressed in transfected cells; host or cells: HMy2.CIR
Outline: as §1

[4] = target: T4, HLA-A1101 (Homo sapiens, UniProt P04439, A114D/D185E/E176A/F33Y/L180Q/S129P/T187R); assay: cell-based; assay type: binding; settings: for inhibition at 5 µM: read-out: 5μM Inhibition (%); for inhibition at 15 µM: read-out: 15μM Inhibition (%)
T4 construct: expressed in transfected cells; host or cells: HMy2.CIR
Outline: as §1

[5] = target: HLA-A2402 (Homo sapiens, UniProt P04439, D101N/D140Y/D185E/E176V/E190D/F33S/G103R/G107R/I119L/I121M/I306V/K335N/L105A/L180Q/L300P/N151K/N90K/Q86E/Q94H/R106L/R138H/R89G/T104I/T345S/V100E/W191G/Y123F); assay: cell-based; assay type: binding; settings: for inhibition at 5 µM / inhibition at 15 µM: HLA-A2402 HMy2.CIR cells, 24 hours, flow cytometry; for inhibition at 5 µM: competitor peptide 5μM; for inhibition at 15 µM: competitor peptide 15μM
Outline: as §1

[6] = target: T5, HLA-A3303 (Homo sapiens, UniProt P04439, A270S/D185E/E176V/E277Q/E87N/F33T/G231S/H175R/I121M/I218V/I322F/K168Q/L300P/L318F/M331R/P217A/Q86R/Q94H/R138Q/T323A/T345S/T97I/V358M); assay: cell-based; assay type: binding; settings: for inhibition at 5 µM / inhibition at 15 µM: HLA-A3303 HMy2.CIR cells, 24 hours, flow cytometry; for inhibition at 5 µM: competitor peptide 5μM, read-out: 5μM Inhibition (%); for inhibition at 15 µM: competitor peptide 15μM, read-out: 15μM Inhibition (%)
T5 construct: expressed in transfected cells; host or cells: HMy2.CIR
Outline: as §1

[7] = system: twelve prevalent HLA-A allotypes; assay: Peptide competitive binding assay, whole panel; set-up: species or system human; settings: high = IC50<5μM
Description: A set of fluoresce-labeled reference peptides (positive-control peptide) were synthesized with a purity of >99% by Sangon Biotech and stored at 4°C, such as FLPSDK(FITC)FPSV for A0201, A0203 and A0206 ([30]), YVNVNK(FITC)GLK for A1101 and A3303 ([31]), EYLVSK(FITC)GVW for A2402 ([32]), ATFQFK(FITC)VER for A3101, A1102 and A0301 ([33]), KLPDDFK(FITC)GCV for A0207 ([34]), YLEPAK(FITC)AKY for A0101 ([30]), and ASRELK(FITC)VSY for A3001 (identified in house). Then the competitive peptide binding assay was performed as described with minor modifications ([30], [35]). Briefly, the HMy2.CIR cell lines expressing the indicated HLA-A molecule were washed with acid buffer (0.131M citric acid and 0.061M sodium phosphate Na2HPO4, PH3.3, 0.22 μm filtered) for 1 min, and immediately neutralized by IMDM medium containing 0.5% BSA. After washing, the cells were seeded into 96-well U culture plate (1×10^5 cells/100 μL/well) with β2-m (1 μg/mL). […] In parallel, no peptide control well (cells alone) and positive control well (cells with FITC-labeled reference peptide) were also performed.
The plate was centrifuged at 600 rpm for 5 min at room temperature (RT). Cells were washed twice with 100 μL cold 0.5% BSA-PBS. Finally, cells were resuspended with 150 μL PBS and analyzed with flow cytometry. Sample % is the percentage of FITC^+ cells in the experiment well, while the background % is the percentage of FITC^+ cells in the no peptide control well, and the max % is the percentage of FITC^+ cells in the positive control well. Competitive binding (%) = [1-(sample % - background %)/(max % – background %)] × 100%. […] Binding affinity of unlabeled peptide with the indicated HLA-A molecule is assessed by IC50.
Subsequently, the unlabeled epitope peptides of HBV competed with fluorescently labeled reference peptides in the binding with HLA-A molecules onto transfected cell lines for 24 hours. Here, twelve prevalent HLA-A allotypes were tested with totally 62 HBV epitope peptides validated in house.

[8] = target: T6, HLA-A0203 (Homo sapiens, UniProt P04439, A173T/D140Y/D185E/D98H/E277Q/G131W/G231S/I119V/I121R/I166T/I218V/L180W/L300P/L318F/N151K/N90K/P208A/P217A/Q86G/Q94H/R138H/R169H/T345S); assay: cell-based; assay type: binding; settings: for inhibition at 5 µM / inhibition at 15 µM: HLA-A0203 HMy2.CIR cells, 24 hours, flow cytometry; for inhibition at 5 µM: competitor peptide 5μM; for inhibition at 15 µM: competitor peptide 15μM
T6 construct: expressed in transfected cells; host or cells: HMy2.CIR
Outline: as §1

[9] = target: T7, HLA-A0301 (Homo sapiens, UniProt P04439); assay: Peptide competitive binding assay, transfected HMy2.CIR cells, reference ATFQFK(FITC)VER; settings: for inhibition at 5 µM / inhibition at 15 µM: HLA-A0301 HMy2.CIR cells, 24 hours, flow cytometry; for inhibition at 5 µM: competitor peptide 5μM, read-out: 5μM Inhibition (%); for inhibition at 15 µM: competitor peptide 15μM, read-out: 15μM Inhibition (%); for pIC50: read-out: Affinity
T7 construct: expressed in transfected cells; host or cells: HMy2.CIR
Outline: as §1

[10] = target: T8, HLA-A1102 (Homo sapiens, UniProt P04439, A114D/D185E/E176A/E43K/F33Y/L180Q/S129P/T187R); assay: as above; settings: for inhibition at 5 µM / inhibition at 15 µM: HLA-A1102 HMy2.CIR cells, 24 hours, flow cytometry; for inhibition at 5 µM: competitor peptide 5μM, read-out: 5μM Inhibition (%); for inhibition at 15 µM: competitor peptide 15μM, read-out: 15μM Inhibition (%); for pIC50: read-out: Affinity
T8 construct: expressed in transfected cells; host or cells: HMy2.CIR
Outline: as §1

[11] = HLA-A1101 HMy2.CIR cells, competitor peptide 5μM, 24 hours, flow cytometry
[12] = HLA-A1101 HMy2.CIR cells, competitor peptide 15μM, 24 hours, flow cytometry

## CC[C@H](C)[C@H](NC(=O)CNC(=O)[C@H](CC(C)C)NC(=O)[C@H](CO)NC(=O)[C@H](CC(C)C)NC(=O)[C@H](CC(C)C)NC(=O)[C@@H](N)Cc1ccccc1)C(=O)N[C@@H](Cc1c[nH]cn1)C(=O)N[C@@H](CC(C)C)C(=O)O [Epitope P10]
[1]
  inhibition at 5 µM: 81.7%
  inhibition at 15 µM: 71.6%
[2]
  inhibition at 5 µM: 21.5%
  inhibition at 15 µM: 43.2%
[3]
  inhibition at 5 µM: 27%
  inhibition at 15 µM: 31%
[4]; [11]
  inhibition at 5 µM: 7.2%
[4]; [12]
  inhibition at 15 µM: 8%
[5]
  inhibition at 5 µM: 19%
  inhibition at 15 µM: 17%
[6]
  inhibition at 5 µM: 60.1%
  inhibition at 15 µM: 66.1%
[7]
  number of HLA-A allotypes bound with high affinity: two

## CC[C@H](C)[C@H](NC(=O)[C@H](Cc1c[nH]c2ccccc12)NC(=O)[C@@H](NC(=O)CNC(=O)[C@H](Cc1ccccc1)NC(=O)[C@H](CO)NC(=O)[C@@H](NC(=O)[C@H](CC(C)C)NC(=O)[C@@H](N)Cc1ccc(O)cc1)C(C)C)C(C)C)C(=O)O [Epitope P11]
[1]
  pIC50: > 5.30
  inhibition at 5 µM: 81.2%
  inhibition at 15 µM: 96.2%
[8]
  pIC50: > 5.30
  inhibition at 5 µM: 89.4%
  inhibition at 15 µM: 97.4%
[4]
  pIC50: < 4.82
[4]; 24 h
  inhibition at 5 µM: 17.1%
  inhibition at 15 µM: 20%
[5]
  Affinity: inter
  inhibition at 5 µM: 41%
  inhibition at 15 µM: 52.5%
[6]
  pIC50: < 4.82
  inhibition at 5 µM: 10.2%
  inhibition at 15 µM: 4.63%
[7]
  number of HLA-A allotypes bound with high affinity: two

## CC(C)C[C@H](NC(=O)[C@H](CC(N)=O)NC(=O)CNC(=O)[C@H](Cc1c[nH]cn1)NC(=O)[C@H](C)NC(=O)[C@H](CC(N)=O)NC(=O)[C@@H](NC(=O)[C@@H](N)[C@@H](C)O)C(C)C)C(=O)N1CCC[C@H]1C(=O)N[C@@H](CCCCN)C(=O)O [Epitope P47] (H-TVNAHGNLPK-OH; N-terminus and C-terminus assumed)
[1]
  pIC50: < 4.82
  inhibition at 5 µM: 7.2%
  inhibition at 15 µM: 12%
[4]
  pIC50: > 5.30
[4]; [11]
  inhibition at 5 µM: 78.3%
[4]; [12]
  inhibition at 15 µM: 90.3%
[9]
  inhibition at 5 µM: 65.8%
  inhibition at 15 µM: 78.1%
  pIC50: > 5.30
[10]
  inhibition at 5 µM: 24.7%
  inhibition at 15 µM: 44.2%
  pIC50: < 4.82
[7]
  number of HLA-A allotypes bound with high affinity: two

## CC(C)C[C@H](NC(=O)[C@@H](NC(=O)[C@H](CCC(N)=O)NC(=O)[C@H](Cc1c[nH]cn1)NC(=O)[C@H](C)NC(=O)[C@H](CC(N)=O)NC(=O)[C@@H](NC(=O)[C@@H](N)[C@@H](C)O)C(C)C)C(C)C)C(=O)N1CCC[C@H]1C(=O)N[C@@H](CCCCN)C(=O)O [Epitope P48] (H-TVNAHQVLPK-OH; N-terminus and C-terminus assumed)
[1]
  pIC50: < 4.82
  inhibition at 5 µM: 9.5%
  inhibition at 15 µM: 15%
[4]
  pIC50: > 5.30
[4]; [11]
  inhibition at 5 µM: 86%
[4]; [12]
  inhibition at 15 µM: 91%
[9]
  inhibition at 5 µM: 67.9%
  inhibition at 15 µM: 73.9%
  pIC50: > 5.30
[10]
  inhibition at 5 µM: 25.5%
  inhibition at 15 µM: 42.7%
  pIC50: < 4.82
[7]
  number of HLA-A allotypes bound with high affinity: two

## CC(C)C[C@H](NC(=O)[C@@H](N)Cc1ccccc1)C(=O)N1CCC[C@H]1C(=O)N[C@@H](CO)C(=O)N[C@@H](CC(=O)O)C(=O)N[C@@H](Cc1ccccc1)C(=O)N[C@@H](Cc1ccccc1)C(=O)N1CCC[C@H]1C(=O)N[C@@H](CO)C(=O)O [Epitope P67] (H-FLPSDFFPS-OH; N-terminus and C-terminus assumed)
[1]
  pIC50: > 5.30
  inhibition at 5 µM: 91.5%
  inhibition at 15 µM: 97.8%
[8]
  pIC50: > 5.30
  inhibition at 5 µM: 86.3%
  inhibition at 15 µM: 91.5%
[2]
  pIC50: > 5.30
  inhibition at 5 µM: 95.7%
  inhibition at 15 µM: 100%
[3]
  pIC50: < 4.82
  inhibition at 5 µM: 42%
  inhibition at 15 µM: 48%
[5]
  pIC50: < 4.82
  inhibition at 5 µM: 2%
  inhibition at 15 µM: 4.3%
[6]
  pIC50: < 4.82
  inhibition at 5 µM: 0%
  inhibition at 15 µM: 0%
[7]
  number of HLA-A allotypes bound with high affinity: three

## CC(C)C[C@H](NC(=O)[C@@H](N)Cc1ccccc1)C(=O)N[C@@H](Cc1c[nH]c2ccccc12)C(=O)N[C@@H](CCC(=O)O)C(=O)N[C@@H](Cc1c[nH]c2ccccc12)C(=O)N[C@@H](C)C(=O)N[C@@H](CO)C(=O)N[C@H](C(=O)N[C@@H](CCCNC(=N)N)C(=O)O)C(C)C [Epitope P78] (H-FLWEWASVR-OH; N-terminus and C-terminus assumed)
[1]
  pIC50: > 5.30
  inhibition at 5 µM: 79.7%
  inhibition at 15 µM: 97.3%
[5]
  pIC50: < 4.82
  inhibition at 5 µM: 1%
  inhibition at 15 µM: 9.1%
[6]
  pIC50: > 5.30
  inhibition at 5 µM: 72.1%
  inhibition at 15 µM: 89.6%
[7]
  number of HLA-A allotypes bound with high affinity: two
